Measured values published in EP0080051A2, “Heterocyclic compounds and antibacterial and antifungal compositions containing the same as active ingredients” (MEIJI SEIKA KAISHA LTD., priority 1981, dated 1983).
In brackets after ≈: the same amount, converted by molar mass. Like-named read-outs stand apart in the source and are kept apart here.

How the values were obtained:
[1] = mouse, p.o.
[2] = tested on: Trichophyton mentagrophytes; experiment: Therapeutic experiment: treatment of trichophytosis in guinea pigs; assay type: in vivo; conditions: 1 % preparation, 0.25 ml once per day over 8 consecutive days, visual observation of diseased skin
[3] = tested on: Escherichia coli NIHJ JC-2; experiment: Antibacterial activity (in medicinal field), MIC; assay type: cell-based; conditions: NIHJJC2, read-out: Minimal Inhibitory Conc. (MIC)
[4] = tested on: Pseudomonas cepacia M-0527; experiment: Antibacterial activity (in medicinal field), MIC; assay type: cell-based; conditions: Burkholderia cepacia, M0527, read-out: Minimal Inhibitory Conc. (MIC)
Proteus vulgaris OX-19 = experiment: Antibacterial activity (in medicinal field), MIC; assay type: cell-based; conditions: OX19, read-out: Minimal Inhibitory Conc. (MIC)
[5] = tested on: Klebsiella pneumoniae PCI-602; experiment: Antibacterial activity (in medicinal field), MIC; assay type: cell-based; conditions: PCI602, read-out: Minimal Inhibitory Conc. (MIC)
[6] = tested on: Bacillus anthracis No. 109; experiment: microbe, parasite or virus in culture; assay type: cell-based; conditions: NO.109, read-out: Minimal Inhibitory Conc. (MIC)
[7] = tested on: Serratia marcescens MB-3848; experiment: Antibacterial activity (in medicinal field), MIC; assay type: cell-based; conditions: MB3848, read-out: Minimal Inhibitory Conc. (MIC)
[8] = tested on: Staphylococcus aureus 209P JC-1; experiment: Antibacterial activity (in medicinal field), MIC; assay type: cell-based; conditions: read-out: Minimal Inhibitory Conc. (MIC)
Salmonella typhi O-901-W = experiment: Antibacterial activity (in medicinal field), MIC; assay type: cell-based; conditions: Salmonella enterica, read-out: Minimal Inhibitory Conc. (MIC)
[9] = tested on: Staphylococcus epidermidis ATCC 14990; experiment: Antibacterial activity (in medicinal field), MIC; assay type: cell-based; conditions: ATCC14990, read-out: Minimal Inhibitory Conc. (MIC)
[10] = tested on: Citrobacter freundii GN-346; experiment: Antibacterial activity (in medicinal field), MIC; assay type: cell-based; conditions: GN346, read-out: Minimal Inhibitory Conc. (MIC)
[11] = tested on: Shigella sonnei EW 33 Type I; experiment: Antibacterial activity (in medicinal field), MIC; assay type: cell-based; conditions: EW33TYPEI, read-out: Minimal Inhibitory Conc. (MIC)
[12] = tested on: Staphylococcus faecalis ATCC 8043; experiment: Antibacterial activity (in medicinal field), MIC; assay type: cell-based; conditions: ATCC8043, read-out: Minimal Inhibitory Conc. (MIC)

Row | SMILES | Acute Toxicity (survival) ([1]; Dosage 100 mg/kg) | Acute Toxicity (survival) ([1]; Dosage 200 mg/kg) | Acute Toxicity (survival) ([1]; Dosage 800 mg/kg) | Therapeutic Effect: Desquamation [2] | Therapeutic Effect: Redness [2] | Therapeutic Effect: Thickening [2] | MIC [3] [µg/mL] | MIC [4] [µg/mL] | MIC (Proteus vulgaris OX-19) [µg/mL] | MIC [5] [µg/mL] | MIC [6] [µg/mL] | MIC [7] [µg/mL] | MIC [8] [µg/mL] | MIC (Salmonella typhi O-901-W) [µg/mL] | MIC [9] [µg/mL] | MIC [10] [µg/mL] | MIC [11] [µg/mL] | MIC [12] [µg/mL] | Acute Toxicity (survival) ([1]; Dosage 500 mg/kg)
1 | O=[N+]([O-])c1ccn(CC(I)=C(I)I)c1 [1-(2',3',3'-triiodoallyl)-3-nitropyrrole] | All animals survived | All animals survived | All animals survived | effective | prominently effective | effective |  |  |  |  |  |  |  |  |  |  |  |  | 
2 | O=[N+]([O-])c1nccn1CC(I)=C(I)I [1-(2',3',3'-triiodoallyl)-2-nitroimidazole] |  |  |  |  |  |  | 25 (≈ 47.1 µM) | 3.12 (≈ 5.88 µM) | 6.25 (≈ 11.8 µM) | 6.25 (≈ 11.8 µM) | 6.25 (≈ 11.8 µM) | 25 (≈ 47.1 µM) | 12.5 (≈ 23.5 µM) | 12.5 (≈ 23.5 µM) | 12.5 (≈ 23.5 µM) | 3.12 (≈ 5.88 µM) | 3.12 (≈ 5.88 µM) | 25 (≈ 47.1 µM) | 
3 | O=[N+]([O-])c1cn(CC#CI)c(Cl)c1Cl [1-(1'-iodopropyn-3'-yl)-2,3-dichloro-4-nitropyrrole] |  | All animals survived | All animals survived |  |  |  |  |  |  |  |  |  |  |  |  |  |  |  | All animals survived
4 | IC(I)=C(I)Cn1ccnc1 [1-(2',3',3'-triiodoallyl)-imidazole, 1-(2',3',3'-Triiodoallyl)imidazole] |  |  |  |  |  |  | 12.5 (≈ 25.7 µM) | 6.25 (≈ 12.9 µM) | 12.5 (≈ 25.7 µM) | 12.5 (≈ 25.7 µM) | 12.5 (≈ 25.7 µM) | 12.5 (≈ 25.7 µM) | 12.5 (≈ 25.7 µM) | 12.5 (≈ 25.7 µM) | 12.5 (≈ 25.7 µM) | 12.5 (≈ 25.7 µM) | 6.5 (≈ 13.4 µM) | 25 (≈ 51.5 µM) | 
5 | O=[N+]([O-])c1c(Cl)cccc1-c1c[nH]cc1Cl [pyrrolni-trin, 3-chloro-4-(2'-nitro-3'-chlorophenyl)pyrrole, reference compound] |  |  |  | in-effective | in-effective | effective |  |  |  |  |  |  |  |  |  |  |  |  | 
6 | O=[N+]([O-])c1cn(CC(I)=C(I)I)c(Cl)c1Cl [1-(2',3',3'-triiodoallyl)-2,3-dichloro-4-nitropyrrole] | All animals survived | All animals survived | All animals survived | effective | prominently effective | effective | 12.5 (≈ 20.9 µM) | 6.25 (≈ 10.4 µM) | 6.25 (≈ 10.4 µM) | 25 (≈ 41.8 µM) | 31.2 (≈ 52.1 µM) | 6.25 (≈ 10.4 µM) | 31.2 (≈ 52.1 µM) | 12.5 (≈ 20.9 µM) | 31.2 (≈ 52.1 µM) | 12.5 (≈ 20.9 µM) | 6.25 (≈ 10.4 µM) | 31.2 (≈ 52.1 µM) | 
7 | O=[N+]([O-])c1cc(Cl)n(CC(I)=C(I)I)c1 [1-(2',3',3'-triiodoallyl)-2-chloro-4-nitropyrrole] |  |  |  |  |  |  | 12.5 (≈ 22.2 µM) | 12.5 (≈ 22.2 µM) | 12.5 (≈ 22.2 µM) | 25 (≈ 44.3 µM) | 6.25 (≈ 11.1 µM) | 12.5 (≈ 22.2 µM) | 6.25 (≈ 11.1 µM) | 12.5 (≈ 22.2 µM) | 6.25 (≈ 11.1 µM) | 12.5 (≈ 22.2 µM) | 12.5 (≈ 22.2 µM) | 6.25 (≈ 11.1 µM) | 
8 | O=[N+]([O-])c1ccn(CC#CI)c1 [1-(1'-iodopro-pyn-3'-yl)-3-nitropyrrole, 1-(1'-iodopropyn-3'-yl)-3-nitropyrrole] |  | All animals survived | All animals survived |  |  |  |  |  |  |  |  |  |  |  |  |  |  |  | All animals survived
9 | Clc1ccccc1C(c1ccccc1)(c1ccccc1)n1ccnc1 [chlotri-mazol, 1-(O-chloro-d, a-diphenylbenzyl) imidazole, reference compound] |  |  |  | effective | in-effective | effective |  |  |  |  |  |  |  |  |  |  |  |  | 
